From patent US20130096138A1, “NOVEL THIOUREA OR UREA DERIVATIVE, PREPARATION METHOD THEREOF, AND PHARMACEUTICAL COMPOSITION FOR PREVENTING OR TREATING AIDS, CONTAINING SAME AS ACTIVE INGREDIENT” (AVIXGEN INC., priority 2010, published 2013)

Test system: HIV
Assay: Assay for inhibitory activity against HIV (p24 ELISA, infected MT-4 cells)
Format: cell-based
Conditions: Human immunodeficiency virus 1, MT4, MT-4 cells infected with pNL4-3-derived HIV, 48 hrs + additional 48 hrs culture, read-out: Conc. for Inhibition of HIV Activity (IC50)
Experimental: The thiourea or urea derivatives of the present invention were assayed for inhibitory activity against HIV as follows.
A pNL4-3 vector carrying an HIV genome was transduced into 293FT cells. […] 293FT cells were seeded at a density of 3.0×10^5 cells/well into 6-well plates containing antibiotic-free DMEM supplemented with 10% FBS and grown for 48 hrs. Upon 90˜95% confluency, the transduction was performed.
The DNA (pNL4-3) was added at a final concentration of 10 ng/mL to 250 μL of the reduced serum medium Opti-MEM I (GIBCO™, USA). Separately, 4 μL of Lipofectamine™ 2000 (Invitrogen, USA) was mixed with 250 μL of Opti-MEM I (GIBCO™), and incubated at room temperature for 5 min. The DNA (pNL4-3) was mixed at a ratio of 1:2 with the lipofectamine and reacted at room temperature for 20 min to form a DNA-lipofectamine complex. After removal of the medium from the cell culture, the DNA-lipofectamine complex was added to the cells and incubated for 4 hrs in a CO2 incubator. Then, the cell culture medium was replaced with a fresh antibiotic-free, 10% FBS-supplemented DMEM, followed by incubation for an additional 48 hrs. The HIV-infected cell culture was centrifuged at 1,500 rpm for 5 min to give a virus supernatant.
MT-4 cells were plated at a density of 1.0×10^6 cells/mL into 6-well plates containing RPMI supplemented with 10% FBS, and incubated for 4 hrs before infection at a ratio of 1:1 with the virus supernatant. The cells were incubated for 48 hrs in a CO2 incubator, after which the culture medium was replaced with a fresh one. Again, incubation was continued for an additional 72 hrs to amplify the virus. After centrifugation at 1,500 rpm for 5 min, the virus supernatant thus obtained was examined for virus density using a Virononstika HIV-1 Antigen Microelisa system kit (bioMerieux, Inc. Netherland).
2. Assay for Inhibitory Activity against HIV
The thiourea or urea derivatives prepared in Examples 1 to 94 were dissolved in DMSO to prepare respective 10 mM or 20 mM stocks, and stored at −20° C. The stocks were diluted to a starting concentration of 200 μM in DMSO before use in experiments.
MT-4 cells were suspended at a density of 4×10^5 cells in 200 μL of RPMI 1640 (Gibco, 10% FBS) per well of 24-well plates, and infected with 200 μL of a virus supernatant containing 2×10^5 pg/mL to give a total volume of 400 μL. After the stocks of the thiourea or urea derivatives were […] to 200 μM in DMSO, 2 μL of each dilution was added to the cells to a final concentration of 1 μM or less. For a positive control, 10 μM AZT (azidothymidine,Sigma, USA) was used at a final concentration of 50 nM while DMSO was used at a final concentration of 0.5% as a negative control. The cells were cultured for 48 hrs in a CO2 incubator (37° C., 5% CO2), and the culture medium was replaced by RPMI 1640 containing the thiourea or urea derivative at a final concentration of 1 μM, followed by incubation for an additional 48 hrs. Virus soups were separated from cells by centrifugation at 1,500 rpm for 5 min and then at 13,000 rpm for 5 min. ELISA for p24 concentrations was carried out using a Virononstika HIV-1 Antigen Microelisa system kit (bioMerieux, Inc. Netherland) to determine the inhibitory activity of each of the thiourea or urea derivatives against HIV.

| Structure (SMILES) | IC50 [nM] |
| --- | --- |
| CC(C)(C)c1ccc(C(=O)NC(=S)Nc2ccccn2)cc1 [Example 37, 1-(4-tert-butyl-benzoyl)-3-(pyridin-2-yl)-thiourea] | 500 |
| CC(C)(C)c1ccc(C(=O)NC(=S)Nc2cccc(Cl)c2)cc1 [Example 38, 1-(4-tert-butyl-benzoyl)-3-(3-chloro-phenyl)-thiourea] | 300 |
| CC(C)(C)c1ccc(C(=O)NC(=S)Nc2cccc3c(O)cccc23)cc1 [Example 1, 1-(4-tert-Butyl-benzoyl)-3-(5-hydroxy-naphthalen-1-yl)-thiourea] | 30 |
| CC(C)(C)c1ccc(C(=O)NC(=S)NC2CCCCC2)cc1 [Example 16, 1-(4-tert-butyl-benzoyl)-3-cyclohexyl-thiourea] | 500 |
| CC(C)(C)c1ccc(C(=O)NC(=S)Nc2cccc3ncccc23)cc1 [Example 50, 1-(4-tert-butyl-benzoyl)-3-(quinolin-5-yl)-thiourea] | 1000 |
